target: CD73 (Homo sapiens (Human), UniProt P21589); experiment: Biochemical assay: inhibition of CD73 activity (AMP hydrolysis, Malachite Green readout); details: CD73 0.3208 nM, AMP 15 μM, 25 mM Tris-HCl pH 7.4, RT, absorbance 620 nm
Protocol: Example A1: Biochemical Assay
Assay Reaction Conditions
• Assay Volume: 70 μl • Reaction Volume: 50 μl • CD73: 0.3208 nM • AMP: 15 μM • Assay Buffer: 25 mM Tris-HCL, pH 7.4, 0.01% Brij-35, 0.01% BSA, 5 mM MgCl2 Assay Procedure:
Made dose titration of testing compounds in assay buffer, 10 points ½ log titrations in duplicates starting at 100 μM.
Added 25 μl of CD73 to each well for a final concentration of 320 pM.
Incubated at RT for 15 min.
Added 25 μl of AMP to each well for a final concentration of 15 μM.
Incubated at RT for 10 min.
Added 10 μl of Malachite Green Reagent A, incubate at RT for 10 min.
Added 10 of Malachite Green Reagent B, incubate at RT for 45 min.
Read the Absorbance on Envision plate reader using excitation filter: Cy5 […].
The ability of the compounds disclosed herein to inhibit CD73 activity was quantified and the respective IC50 values were determined. Table 2 provides the biochemical IC50 values of compounds disclosed herein.

Sequence of CD73 (P21589 27-574): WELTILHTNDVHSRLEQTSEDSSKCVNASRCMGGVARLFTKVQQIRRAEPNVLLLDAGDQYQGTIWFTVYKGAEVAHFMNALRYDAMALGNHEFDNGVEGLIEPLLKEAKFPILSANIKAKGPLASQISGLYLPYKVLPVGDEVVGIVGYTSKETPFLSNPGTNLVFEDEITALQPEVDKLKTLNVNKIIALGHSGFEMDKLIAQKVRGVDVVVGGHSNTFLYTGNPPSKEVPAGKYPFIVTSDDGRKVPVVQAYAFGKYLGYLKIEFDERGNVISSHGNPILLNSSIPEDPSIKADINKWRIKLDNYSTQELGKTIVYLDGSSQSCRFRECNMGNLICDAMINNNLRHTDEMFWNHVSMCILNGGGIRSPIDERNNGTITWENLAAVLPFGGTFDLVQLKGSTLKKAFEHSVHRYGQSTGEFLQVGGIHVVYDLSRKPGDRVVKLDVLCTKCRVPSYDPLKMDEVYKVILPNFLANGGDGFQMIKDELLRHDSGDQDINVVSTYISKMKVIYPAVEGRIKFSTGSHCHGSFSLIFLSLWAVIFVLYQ

IC50 [nM]	Structure (SMILES)
≤ 100	COC[C@](C)(OC[C@H]1O[C@@H](n2nnc3c(NC4CCCC4)nc(Cl)nc32)[C@H](O)[C@@H]1O)P(=O)(O)O [Example 110, ((R)-2-(((2R,3S,4R,5R)-5-(5-chloro-7-(cyclopentylamino)-3H-[1,2,3]triazolo[4,5-d]pyrimidin-3-yl)-3,4-dihydroxytetrahydrofuran-2-yl)methoxy)-1-methoxypropan-2-yl)phosphonic acid]
≤ 100	COCCOc1nc(NC2CCCC2)c2cnn([C@@H]3O[C@H](COC(C)(CO)P(=O)(O)O)[C@@H](O)[C@H]3O)c2n1 (stereo partly drawn) [Example 145, (2-(((2R,3S,4R,5R)-5-(4-(cyclopentylamino)-6-(2-methoxyethoxy)-1H-pyrazolo[3,4-d]pyrimidin-1-yl)-3,4-dihydroxytetrahydrofuran-2-yl)methoxy)-1-hydroxypropan-2-yl)phosphonic acid]
≤ 100	CC(CO)(OC[C@H]1O[C@@H](n2ncc3c(N[C@@H]4CCc5ccccc54)nc(Cl)nc32)[C@H](O)[C@@H]1O)P(=O)(O)O (stereo partly drawn) [Example 61, (2-(((2R,3S,4R,5R)-5-(6-chloro-4-(((R)-2,3-dihydro-1H-inden-1-yl)amino)-1H-pyrazolo[3,4-d]pyrimidin-1-yl)-3,4-dihydroxytetrahydrofuran-2-yl)methoxy)-1-hydroxypropan-2-yl)phosphonic acid]
≤ 100	C[C@@H](P(=O)(O)O)S(=O)(=O)C[C@H]1O[C@@H](n2ncc3c(NC4CCCC4)nc(Cl)nc32)[C@H](O)[C@@H]1O [Example 6, ((S)-1-((((2S,3S,4R,5R)-5-(6-Chloro-4-(cyclopentylamino)-1H-pyrazolo[3,4-d]pyrimidin-1-yl)-3,4-dihydroxytetrahydrofuran-2-yl)methyl)sulfonyl)ethyl)phosphonic acid]
≤ 100	CC(CO)(P(=O)(O)O)S(=O)(=O)C[C@H]1O[C@@H](n2ncc3c(NC4CCCC4)nc(Cl)nc32)[C@H](O)[C@@H]1O (stereo partly drawn) [Example 8, (2-((((2S,3S,4R,5R)-5-(6-Chloro-4-(cyclopentylamino)-1H-pyrazolo[3,4-d]pyrimidin-1-yl)-3,4-dihydroxytetrahydrofuran-2-yl)methyl)sulfonyl)-1-hydroxypropan-2-yl)phosphonic acid]
100 to 1000	O=C(O)c1ccc(C[C@@](CO)(OC[C@H]2O[C@@H](n3ncc4c(NC5CCCC5)nc(Cl)nc43)[C@H](O)[C@@H]2O)P(=O)(O)O)cc1 (racemic) [Example 187, rac-4-((R)-2-(((2R,3S,4R,5R)-5-(6-chloro-4-(cyclopentylamino)-1H-pyrazolo[3,4-d]pyrimidin-1-yl)-3,4-dihydroxytetrahydrofuran-2-yl)methoxy)-3-hydroxy-2-phosphonopropyl)benzoic acid]
≤ 100	O=P(O)(O)C(CO)OC[C@H]1O[C@@H](n2nnc3c(NC4CCCC4)nc(Cl)nc32)[C@H](O)[C@@H]1O (stereo partly drawn) [Example 58, (1-(((2R,3S,4R,5R)-5-(5-Chloro-7-(cyclopentylamino)-3H-[1,2,3]triazolo[4,5-d]pyrimidin-3-yl)-3,4-dihydroxytetrahydrofuran-2-yl)methoxy)-2-hydroxyethyl)phosphonic acid]
≤ 100	COCC(COC)(OC[C@H]1O[C@@H](n2ncc3c(NC4CCCC4)nc(Cl)nc32)[C@H](O)[C@@H]1O)P(=O)(O)O [Example 87, [1-[[(2R,3S,4R,5R)-5-[6-Chloro-4-(cyclopentylamino)pyrazolo[3,4-d]pyrimidin-1-yl]-3,4-dihydroxy-tetrahydrofuran-2-yl]methoxy]-2-methoxy-1-(methoxymethyl)ethyl]phosphonic acid]
≤ 100	C[C@@](Cc1nn[nH]n1)(OC[C@H]1O[C@@H](n2ncc3c(NC4CCCC4)nc(Cl)nc32)[C@H](O)[C@@H]1O)P(=O)(O)O [Example 119, ((R)-2-(((2R,3S,4R,5R)-5-(6-chloro-4-(cyclopentylamino)-1H-pyrazolo[3,4-d]pyrimidin-1-yl)-3,4-dihydroxytetrahydrofuran-2-yl)methoxy)-1-(2H-tetrazol-5-yl)propan-2-yl)phosphonic acid]
≤ 100	O=P(O)(O)C(COCCO)OC[C@H]1O[C@@H](n2ncc3c(NC4CCCC4)nc(Cl)nc32)[C@H](O)[C@@H]1O (mixture of isomers) [Example 166, rac-(1-(((2R,3S,4R,5R)-5-(6-chloro-4-(cyclopentyalmino)-1H-pyrazolo[3,4-d]pyrimidin-1-yl)-3,4-dihydroxytetrahydrofuran-2-yl)methoxy)-2-(2-hydroxyethoxy)ethyl)phosphonic acid]
100 to 1000	CCP(=O)(O)C(CO)(CO)OC[C@H]1O[C@@H](n2ncc3c(NC4CCCC4)nc(Cl)nc32)[C@H](O)[C@@H]1O [Example 112, (2-(((2R,3S,4R,5R)-5-(6-chloro-4-(cyclopentylamino)-1H-pyrazolo[3,4-d]pyrimidin-1-yl)-3,4-dihydroxytetrahydrofuran-2-yl)methoxy)-1,3-dihydroxypropan-2-yl)(ethyl)phosphinic acid]
≤ 100	Cn1nnc(CC(CO)(OC[C@H]2O[C@@H](n3ncc4c(NC5CCCC5)nc(Cl)nc43)[C@H](O)[C@@H]2O)P(=O)(O)O)n1 (stereo partly drawn) [Example 96, (2-(((2R,3S,4R,5R)-5-(6-chloro-4-(cyclopentylamino)-1H-pyrazolo[3,4-d]pyrimidin-1-yl)-3,4-dihydroxytetrahydrofuran-2-yl)methoxy)-1-hydroxy-3-(2-methyl-2H-tetrazol-5-yl)propan-2-yl)phosphonic acid]
≤ 100	C[C@@](CO)(OC[C@H]1O[C@@H](n2ncc3c(N[C@@H]4CCc5cc(F)ccc54)nc(Cl)nc32)[C@H](O)[C@@H]1O)P(=O)(O)O [Example 122, ((R)-2-(((2R,3S,4R,5R)-5-(6-chloro-4-(((R)-5-fluoro-2,3-dihydro-1H-inden-1-yl)amino)-1H-pyrazolo[3,4-d]pyrimidin-1-yl)-3,4-dihydroxytetrahydrofuran-2-yl)methoxy)-1-hydroxypropan-2-yl)phosphonic acid]
≤ 100	CC(CO)(OC[C@H]1O[C@@H](n2ncc3c(N[C@@H]4CCC45CCC5)nc(Cl)nc32)[C@H](O)[C@@H]1O)P(=O)(O)O (stereo partly drawn) [Example 135, (2-(((2R,3S,4R,5R)-5-(6-chloro-4-(((R)-spiro[3.3]heptan-1-yl)amino)-1H-pyrazolo[3,4-d]pyrimidin-1-yl)-3,4-dihydroxytetrahydrofuran-2-yl)methoxy)-1-hydroxypropan-2-yl)phosphonic acid]
≤ 100	O=P(O)(O)C(CO)(CO)OC[C@H]1O[C@@H](n2ncc3c(NCc4ccc(Cl)cc4)nc(Cl)nc32)[C@H](O)[C@@H]1O (racemic) [Example 201, rac-(2-(((2R,3S,4R,5R)-5-(6-chloro-4-((4-chlorobenzyl)amino)-1H-pyrazolo[3,4-d]pyrimidin-1-yl)-3,4-dihydroxytetrahydrofuran-2-yl)methoxy)-1,3-dihydroxypropan-2-yl)phosphonic acid]
≤ 100	O=P(O)(O)C(CO)(CO)OC[C@H]1O[C@@H](n2ncc3c(N[C@@H]4CCc5ccccc54)nc(OCCO)nc32)[C@H](O)[C@@H]1O [Example 100, (2-(((2R,3S,4R,5R)-5-(4-(((R)-2,3-dihydro-1H-inden-1-yl)amino)-6-(2-hydroxyethoxy)-1H-pyrazolo[3,4-d]pyrimidin-1-yl)-3,4-dihydroxytetrahydrofuran-2-yl)methoxy)-1,3-dihydroxypropan-2-yl)phosphonic acid]
≤ 100	O=P(O)(O)[C@@](CO)(Cc1nn[nH]n1)OC[C@H]1O[C@@H](n2ncc3c(NC4CCCC4)nc(CO)nc32)[C@H](O)[C@@H]1O (racemic) [Example 218, rac-((R)-2-(((2R,3S,4R,5R)-5-(4-(cyclopentylamino)-6-(hydroxymethyl)-1H-pyrazolo[3,4-d]pyrimidin-1-yl)-3,4-dihydroxytetrahydrofuran-2-yl)methoxy)-1-hydroxy-3-(2H-tetrazol-5-yl)propan-2-yl)phosphonic acid]
≤ 100	CSCC(C)(OC[C@H]1O[C@@H](n2ncc3c(NC4CCCC4)nc(Cl)nc32)[C@H](O)[C@@H]1O)P(=O)(O)O (stereo partly drawn) [Example 55, (2-(((2R,3S,4R,5R)-5-(6-Chloro-4-(cyclopentylamino)-1H-pyrazolo[3,4-d]pyrimidin-1-yl)-3,4-dihydroxytetrahydrofuran-2-yl)methoxy)-1-(methylthio)propan-2-yl)phosphonic acid]
≤ 100	O=P(O)(O)[C@@](CO)(Cc1nn[nH]n1)OC[C@H]1O[C@@H](n2ncc3c(NC4CCC4)nc(Cl)nc32)[C@H](O)[C@@H]1O (racemic) [Example 213, rac-((R)-2-(((2R,3S,4R,5R)-5-(6-chloro-4-(cyclobutylamino)-1H-pyrazolo[3,4-d]pyrimidin-1-yl)-3,4-dihydroxytetrahydrofuran-2-yl)methoxy)-1-hydroxy-3-(2H-tetrazol-5-yl)propan-2-yl)phosphonic acid]
≤ 100	COCC(C)(OC[C@H]1O[C@@H](n2nnc3c(N[C@@H]4CCc5ccccc54)nc(Cl)nc32)[C@H](O)[C@@H]1O)P(=O)(O)O (stereo partly drawn) [Example 155, (2-(((2R,3S,4R,5R)-5-(5-chloro-7-(((R)-2,3-dihydro-1H-inden-1-yl)amino)-3H-[1,2,3]triazolo[4,5-d]pyrimidin-3-yl)-3,4-dihydroxytetrahydrofuran-2-yl)methoxy)-1-methoxypropan-2-yl)phosphonic acid]

Source: patent US11325938B2, “CD73 inhibitors” (ORIC Pharmaceuticals, Inc., priority 2018, dated 2022)
